Experimental data as given in patent US8198317B2, “Methylenedioxy phenolic compounds and their use to treat disease” (The Ohio State University Research Foundation, priority 2008, dated 2012).

Tests used:
Assay type in all cases: in vivo, human
Patient = assay: Treatment of a patient with recent myocardial infarction (Examples 16-18); settings: oral, 1.0 to 100 mg/kg
Experimental: (§1) A person presents with sudden chest pain typically radiating to the left arm or left side of the neck, shortness of breath, nausea and palpitation with vomiting and sweating. After being evaluated with an electrocardiogram (EKG, ECG), a chest X-ray and blood tests to detect elevations in cardiac markers (blood tests to detect heart muscle damage), they are diagnosed as suffering from myocardial infarction. The patient is administered therapy such as aspirin, a drug to reduce the tendency of platelet aggregation, such as clopidogrel bisulfate, a statin, IV heparin and taken to the catheterization laboratory where they undergo stenting of the coronary artery. They are allowed to recover for a 12-24 hour period. Oral therapy with 3,4-methylenedioxy-6-nitrophenyl acetate (INV 75) (1.0 to 100 mg/kg) is started and continued for at least a year. During the follow-up visit a month later, patient reports improvement in symptoms.
as §1, with “Oral therapy with 3,4-methylenedioxy-6-nitrophenyl acetate (INV 75) (1.0 to 100 mg/kg) is started and continued for at least a year. During the follow-up visit a month later, patient reports improvement in symptoms.” left out
A person presents with sudden chest pain typically radiating to the left arm or left side of the neck, shortness of breath, nausea and palpitation with vomiting and sweating. After being evaluated with an electrocardiogram (EKG, ECG), a chest X-ray and blood tests to detect elevations in cardiac markers (blood tests to detect heart muscle damage), they are diagnosed as suffering from myocardial infarction. […]

Patients = assay: Treatment of patients with Type I and Type II diabetes (Example 24); settings: diabetic patients, oral, 12 months
From the text: Individuals with Type I and Type II diabetes are at risk for future cardiovascular events such as heart attacks, strokes and kidney disease. These individuals are on prevention treatments such as hypolipidemic drug therapy such as statins and anti-hypertensive agents such as ACE inhibitors. They are already receiving glycemia lowering strategies such as Insulin, PPARγ agents, Metformin or sulfonylurea therapy. They also will receive an acceptable dose of a composition comprising a compound of the present invention in an acceptable carrier orally chronically for durations in excess of 12 months. In one study, 3,4-Methylenedioxy 6-nitro phenyl lipoate (INV-7465) or 3,4-Methylenedioxy phenyl lipoate (INV-7065) are administered to these individuals. The patients undergo the following measurements: HbA1C to assess glycemic control, urinary microalbuminura, blood pressure and lipid measurements. At the end of 12 months of treatment, there is lowering of HbA1C and urinary microalbuminuria. There is an improvement in VLDL cholesterol and a decrease in triglycerides with any of these treatments [(3,4-methylenedioxy phenyl acetate (INV 73); 3,4-methylenedioxy-6-nitrophenol (INV 74); 3,4-methylenedioxy-6-nitrophenyl acetate (INV 75); 3,4-Methylenedioxy 6-nitro phenyl lipoate (INV-7465) or 3,4-Methylenedioxy phenyl lipoate (INV-7065)].

Humans = assay: Treatment of atherosclerosis in humans, primary prevention (Example 22); settings: oral, in excess of 12 months
From the text: Individuals with risk factors for atherosclerosis such as family history, hypertension and high cholesterol are known to be at risk for future cardiovascular events such as heart attacks and strokes. These individuals are on primary prevention treatments such as hypolipidemic drug therapy such as statins aspirin and anti-hypertensive agents such as ACE inhibitors, diuretics or calcium channel blockers. They also will receive an acceptable dose of a composition comprising a compound of the present invention in an acceptable carrier orally chronically for durations in excess of 12 months. In one study, 3,4-methylenedioxy phenyl acetate (INV 73); 3,4-methylenedioxy-6-nitrophenol (INV 74); 3,4-methylenedioxy-6-nitrophenyl acetate (INV 75); 3,4-Methylenedioxy 6-nitro phenyl lipoate (INV-7465) or 3,4-Methylenedioxy phenyl lipoate (INV-7065) are administered to these individuals. A repeat IVUS measurement is made at the end of the treatment period to assess the effect of the infusion of the composition on coronary atherosclerosis in the target vessel.

SMILES	symptoms at follow-up visit a month later (Patient)	HbA1C (Patients)	VLDL cholesterol (Patients)	triglycerides (Patients)	urinary microalbuminuria (Patients)	plaque in the atherosclerotic coronary artery (IVUS) (Humans)
O=C(CCCCC1CCSS1)Oc1cc2c(cc1[N+](=O)[O-])OCO2 (stereo not shown) [INV-7465, 3,4-Methylenedioxy 6-nitro phenyl lipoate]	improvement	lowering	improvement	decrease	lowering	reduced
O=C(CCCCC1CCSS1)Oc1ccc2c(c1)OCO2 (stereo not shown) [INV-7065, 3,4-Methylenedioxy phenyl lipoate]	improvement	lowering	improvement	decrease	lowering	reduced
CC(=O)Oc1cc2c(cc1[N+](=O)[O-])OCO2 [INV-75, 3,4-methylenedioxy-6-nitrophenyl acetate]	improvement		improvement	decrease		reduced
